Source: the supplement of paper PMC11061612

Legend:
Assay in all cases: combination Emax (second highest fraction inhibited in the dose matrix, 72 h); higher = more inhibition; extreme values may be limits of the assay
[1] = test system: EMC-BAC-2 (Non-Small Cell Lung Carcinoma)
Procedure, shortened: (§1)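 Cell lines grown in DMEM/F12 or RPMI with 10% FBS were plated in 1536-well plates and held 24 hours at 37°C, 5% CO2 before 72 hours of exposure to two-drug dose matrices, with DMSO typically at 0.2%. CellTiter-Glo 2.0 luminescence gave viability, which was converted to inhibition. Vehicle wells were set to 0 and blank wells to 1. Combination Emax is the second-highest inhibition in the matrix, and Bliss excess is the observed combination effect minus the expected EA + EB − EA·EB, where EA and EB are the single-agent effects.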

EW-18 (Ewing's Sarcoma) = test system: EW-18 (Ewing's Sarcoma)
Procedure, shortened: as §1

EW-3 (Ewing's Sarcoma) = test system: EW-3 (Ewing's Sarcoma)
Procedure, shortened: as §1

[2] = test system: HC-1 (Other Blood Carcinomas)
Procedure, shortened: as §1

[3] = test system: JHH-7 (Hepatocellular Carcinoma)
Procedure, shortened: as §1

[4] = test system: KYSE-150 (Esophageal Squamous Cell Carcinoma)
Procedure, shortened: as §1

[5] = test system: LC4-1 (B-Lymphoblastic Leukemia)
Procedure, shortened: as §1

[6] = test system: LOU-NH91 (Squamous Cell Lung Carcinoma)
Procedure, shortened: as §1

[7] = test system: NCI-H1573 (Lung Adenocarcinoma)
Procedure, shortened: as §1

[8] = test system: NCI-H322M (Lung Adenocarcinoma)
Procedure, shortened: as §1

[9] = test system: OCUB-M (Breast Carcinoma)
Procedure, shortened: as §1

[10] = test system: OVISE (Ovarian Carcinoma)
Procedure, shortened: as §1

[11] = test system: PFSK-1 (Other Solid Carcinomas)
Procedure, shortened: as §1

U-87-MG (Glioblastoma) = test system: U-87-MG (Glioblastoma)
Procedure, shortened: as §1

Compound	combination Emax [1]	combination Emax (EW-18 (Ewing's Sarcoma))	combination Emax (EW-3 (Ewing's Sarcoma))	combination Emax [2]	combination Emax [3]	combination Emax [4]	combination Emax [5]	combination Emax [6]	combination Emax [7]	combination Emax [8]	combination Emax [9]	combination Emax [10]	combination Emax [11]	combination Emax (U-87-MG (Glioblastoma))
CC1(C)CCC(CN2CCN(c3ccc(C(=O)NS(=O)(=O)c4ccc(NCC5CCOCC5)c([N+](=O)[O-])c4)c(Oc4cnc5[nH]ccc5c4)c3)CC2)=C(c2ccc(Cl)cc2)C1 [Venetoclax] + CN(C)CCCOc1ccc(-c2ccc3ncc4c(c3c2)n(C2CCOCC2)c(=O)n4C)cn1 [AZD0156] (first compound max 1 µM, 7x7, partner max 1 µM)	0.25	0.389	0.799	0.207	0.18	0.237	1	0.227	0.168	0.31	0.749	0.262	0.391	0.203
Cc1c2c(nn1C)CSCc1cc(n(C)n1)CSc1cc(c3ccccc3c1)OCCCc1c(C(=O)O)n(C)c3c-2c(Cl)ccc13 [AZD5991] + C[C@@H](Nc1cc(F)cc(F)c1)c1cc(C(=O)N(C)C)cc2c(=O)cc(N3CCOCC3)oc12 [AZD8186] (first compound max 1 µM, 7x7, partner max 3 µM)	0.632	0.94	0.636	0.534	0.169	0.281	0.949	0.371	0.318	0.414	0.986	0.325	0.998	0.45
Cc1c2c(nn1C)CSCc1cc(n(C)n1)CSc1cc(c3ccccc3c1)OCCCc1c(C(=O)O)n(C)c3c-2c(Cl)ccc13 [AZD5991] + CC1(C)CCC(CN2CCN(c3ccc(C(=O)NS(=O)(=O)c4ccc(NCC5CCOCC5)c([N+](=O)[O-])c4)c(Oc4cnc5[nH]ccc5c4)c3)CC2)=C(c2ccc(Cl)cc2)C1 [Venetoclax] (first compound max 1 µM, 7x7, partner max 1 µM)	0.694	0.919	0.953	0.762	0.221	0.17	1	0.221	0.302	0.155	0.996	0.442	1	0.174
NC1(C(=O)N[C@@H](CCO)c2ccc(Cl)cc2)CCN(c2ncnc3[nH]ccc23)CC1 [Capivasertib] + Cn1cnc2c(F)c(Nc3ccc(Br)cc3Cl)c(C(=O)NOCCO)cc21 [Selumetinib] (first compound max 10 µM, 7x7, partner max 10 µM)	0.622	0.656	0.24	0.601	0.418	0.743	0.575	0.487	0.495	0.582	0.998	0.454	0.516	0.685
C[C@@H](c1ccc2nccn2c1)n1nnc2ncc(-c3cnn(C)c3)nc21 [Savolitinib] + CC1(C)CCC(CN2CCN(c3ccc(C(=O)NS(=O)(=O)c4ccc(NCC5CCOCC5)c([N+](=O)[O-])c4)c(Oc4cnc5[nH]ccc5c4)c3)CC2)=C(c2ccc(Cl)cc2)C1 [Venetoclax] (first compound max 1 µM, 7x7, partner max 1 µM)	0.0698	0.229	0.379	0.173	0.114	0.189	1	0.135	0.203	0.0582	0.116	0.0991	0.302	0.252
Cc1c2c(nn1C)CSCc1cc(n(C)n1)CSc1cc(c3ccccc3c1)OCCCc1c(C(=O)O)n(C)c3c-2c(Cl)ccc13 [AZD5991] + CCN(CCO)CCCOc1ccc2c(Nc3cc(CC(=O)Nc4cccc(F)c4)[nH]n3)ncnc2c1 [AZD2811] (first compound max 1 µM, 7x7, partner max 1 µM)	0.823	0.919	0.771	0.737	0.453	0.498	0.993	0.612	0.425	0.188	1	0.376	0.998	0.326
CN(CCO)CC[C@H](CSc1ccccc1)Nc1ccc(S(=O)(=O)NC(=O)c2ccc(N3CCC([C@@H](O)c4ccccc4-c4ccc(Cl)cc4)CC3)cc2)cc1S(=O)(=O)C(F)(F)F [AZD4320] + C[C@@H]1COCCN1C2=NC(=NC(=C2)C3(CC3)[S@](=N)(=O)C)C4=C5C=CNC5=NC=C4 [AZD6738] (first compound max 1 µM, 7x7, partner max 10 µM)	0.632	0.897	0.971	0.958	0.524	0.614	1	0.575	0.634	0.915	0.823	0.961	0.781	0.501
CN(CCO)CC[C@H](CSc1ccccc1)Nc1ccc(S(=O)(=O)NC(=O)c2ccc(N3CCC([C@@H](O)c4ccccc4-c4ccc(Cl)cc4)CC3)cc2)cc1S(=O)(=O)C(F)(F)F [AZD4320] + Cc1cc2ncnn2cc1Nc1ncc2c(n1)n(C1CCOCC1)c(=O)n2C [AZD7648] (first compound max 1 µM, 7x7, partner max 10 µM)	0.258	0.883	0.958	0.58	0.344	0.478	1	0.346	0.135	0.254	0.66	0.779	0.397	0.311
Cc1nc(Nc2ncc(C(=O)Nc3c(C)cccc3Cl)s2)cc(N2CCN(CCO)CC2)n1 [Dasatinib] + CC(=O)Nc1cccc(-n2c(=O)n(C3CC3)c(=O)c3c(Nc4ccc(I)cc4F)n(C)c(=O)c(C)c32)c1 [Trametinib] (first compound max 2 µM, 7x7, partner max 1 µM)	0.779	0.13	0.0371	0.494	0.306	0.743	0.244	0.674	0.707	0.721	0.0542	0.828	0.338	0.384
C[C@@H](c1ccc2nccn2c1)n1nnc2ncc(-c3cnn(C)c3)nc21 [Savolitinib] + CN(CC[C@H](CSC1=CC=CC=C1)NC2=C(C=C(C=C2)S(=O)(=O)NC(=O)C3=CC=C(C=C3)N4CCC(CC4)[C@H](C5=CC=CC=C5C6=CC=C(C=C6)Cl)O)S(=O)(=O)C(F)(F)F)CCO [AZD4320] (first compound max 1 µM, 7x7, partner max 1 µM)	0.216	0.891		0.546		0.219		0.334	0.218	0.0979		0.7	0.329	0.259
COc1nnc2ccc(N3CCC(c4ccc(OCCN5CCN(C)C(=O)[C@H]5C)cc4)CC3)nn12 [AZD5153] + CN(CC[C@H](CSC1=CC=CC=C1)NC2=C(C=C(C=C2)S(=O)(=O)NC(=O)C3=CC=C(C=C3)N4CCC(CC4)[C@H](C5=CC=CC=C5C6=CC=C(C=C6)Cl)O)S(=O)(=O)C(F)(F)F)CCO [AZD4320] (first compound max 1 µM, 7x7, partner max 1 µM)	0.661	0.929		0.695		0.607		0.781	0.356	0.563		0.9	0.558	0.625
CC(=O)c1c(C)c2cnc(Nc3ccc(N4CCNCC4)cn3)nc2n(C2CCCC2)c1=O [Palbociclib] + CN(CC[C@H](CSC1=CC=CC=C1)NC2=C(C=C(C=C2)S(=O)(=O)NC(=O)C3=CC=C(C=C3)N4CCC(CC4)[C@H](C5=CC=CC=C5C6=CC=C(C=C6)Cl)O)S(=O)(=O)C(F)(F)F)CCO [AZD4320] (first compound max 10 µM, 7x7, partner max 1 µM)	0.366	0.903		0.831		0.607		0.618	0.306	0.517		0.889	0.51	0.312
CS(=O)(=O)CCNCc1ccc(-c2ccc3ncnc(Nc4ccc(OCc5cccc(F)c5)c(Cl)c4)c3c2)o1 [Lapatinib] + NC1(c2ccc(-c3nc4ccn5c(=O)[nH]nc5c4cc3-c3ccccc3)cc2)CCC1 [MK-2206] (first compound max 10 µM, 7x7, partner max 10 µM)			0.87		0.754	0.954	0.954		0.723		1	0.928	0.942	
Cc1cc2ncnn2cc1Nc1ncc2c(n1)n(C1CCOCC1)c(=O)n2C [AZD7648] + O=C(c1cc(Cc2n[nH]c(=O)c3ccccc23)ccc1F)N1CCN(C(=O)C2CC2)CC1 [Olaparib] (first compound max 10 µM, 7x7, partner max 10 µM)	0.204	0.369	0.657	0.521	0.159	0.537	0.442	0.186	0.0771	0.325	0.256	0.19		
C=CCn1c(=O)c2cnc(Nc3ccc(N4CCN(C)CC4)cc3)nc2n1-c1cccc(C(C)(C)O)n1 [AZD1775] + O=C(c1cc(Cc2n[nH]c(=O)c3ccccc23)ccc1F)N1CCN(C(=O)C2CC2)CC1 [Olaparib] (first compound max 1 µM, partner max 10 µM)	0.269	0.522	0.661	0.983	0.293	0.493	0.92	0.383	0.325	0.666	0.504	0.619		
CCc1c2c(nc3ccc(O)cc13)-c1cc3c(c(=O)n1C2)COC(=O)[C@]3(O)CC [SN-38] + CN(C)CCCOc1ccc(-c2ccc3ncc4c(c3c2)n(C2CCOCC2)c(=O)n4C)cn1 [AZD0156] (first compound max 0.3 µM, 7x7, partner max 1 µM)	0.594	0.633	0.838	1	0.208	0.732	0.932	0.857	0.228	0.811	0.764	0.181		
